biological target: NS3 (Hepatitis C virus) (UniProt A3EZJ3); test: Binding affinity against Hepatitis C virus NS3 protease was calculated as Kcat; settings: Hepacivirus hominis
Sequence (A3EZJ3 as listed by the source): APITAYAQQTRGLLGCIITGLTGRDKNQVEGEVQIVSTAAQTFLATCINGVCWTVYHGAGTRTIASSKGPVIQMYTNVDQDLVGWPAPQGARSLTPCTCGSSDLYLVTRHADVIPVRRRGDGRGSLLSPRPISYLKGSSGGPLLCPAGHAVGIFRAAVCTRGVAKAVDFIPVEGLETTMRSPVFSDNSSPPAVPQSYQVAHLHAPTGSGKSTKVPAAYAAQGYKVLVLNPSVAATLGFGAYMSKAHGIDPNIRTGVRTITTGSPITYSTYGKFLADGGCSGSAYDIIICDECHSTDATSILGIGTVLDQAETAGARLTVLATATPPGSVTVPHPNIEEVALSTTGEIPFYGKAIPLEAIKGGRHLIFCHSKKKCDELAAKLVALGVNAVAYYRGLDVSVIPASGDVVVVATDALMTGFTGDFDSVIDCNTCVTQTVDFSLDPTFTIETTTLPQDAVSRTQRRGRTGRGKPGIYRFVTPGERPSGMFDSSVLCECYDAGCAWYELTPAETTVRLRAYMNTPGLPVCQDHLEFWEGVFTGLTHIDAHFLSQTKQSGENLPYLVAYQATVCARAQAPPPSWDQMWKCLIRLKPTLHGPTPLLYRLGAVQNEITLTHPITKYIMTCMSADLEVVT

| SMILES | k cat [s⁻¹] |
| --- | --- |
| CCCN(NC(=O)[C@H]1CCCN1C(=O)[C@@H](NC(=O)[C@@H](NC(=O)[C@H](CC(=O)O)NC(=O)[C@H](CCC(=O)O)NC(C)=O)C(C)C)C(C)C)C(=O)Oc1ccc([N+](=O)[O-])cc1 | 0.00833 |
| CCCN(NC(=O)[C@H]1CCCN1C(=O)[C@@H](NC(=O)[C@@H](NC(=O)[C@H](CC(=O)O)NC(C)=O)C(C)C)C(C)C)C(=O)Oc1ccc([N+](=O)[O-])cc1 | 0.00833 |
| CCCC(NC(=O)[C@H]1CCCN1C(=O)[C@@H](NC(=O)[C@@H](NC(=O)[C@H](CC(=O)O)NC(=O)[C@H](CCC(=O)O)NC(=O)[C@@H](NC(=O)[C@H](CC(=O)O)NC(C)=O)[C@@H](C)O)C(C)C)C(C)C)C(=O)Oc1ccc([N+](=O)[O-])cc1 (stereo not given in full) | 1.67 |
| CCCN(NC(=O)[C@H]1CCCN1C(=O)[C@@H](NC(=O)[C@@H](NC(C)=O)C(C)C)C(C)C)C(=O)Oc1ccc([N+](=O)[O-])cc1 | 0.00667 |
| CCCN(NC(=O)[C@H]1CCCN1C(=O)[C@@H](NC(=O)[C@@H](NC(=O)[C@H](CC(=O)O)NC(=O)[C@H](CCC(=O)O)NC(=O)[C@@H](NC(C)=O)[C@@H](C)O)C(C)C)C(C)C)C(=O)Oc1ccc([N+](=O)[O-])cc1 | 0.00833 |

From ChEMBL document CHEMBL1135259, “Azapeptides as inhibitors of the hepatitis C virus NS3 serine protease” (Bioorg Med Chem Lett, 2002)
